Reference: a melting point compilation (Tetko et al.; mined from patent text by program, amines drawn as free bases though some values may be those of a salt)

melting point [°C]	SMILES
150 to 155	O=C(O)COc1c[nH]c(CCl)cc1=O
254 to 255	CS(=O)(=O)c1ccc(-c2n[nH]c(=O)cc2-c2ccc(Cl)cc2)cc1
208 to 210	c1ccc(C(NC2C3CC4CC(C3)CC2(OCc2ccc(-c3nc5ccccc5o3)cc2)C4)(c2ccccc2)c2ccccc2)cc1 (configuration not stated)
141 to 142	CC(C)c1nn(-c2ccc(Cl)cn2)cc1CCCOc1ccccc1CC(=O)O
92 to 95	N#Cc1ccc(C(OCC2OC(n3ccc(=O)[nH]c3=O)CC2O)(c2ccccc2)c2ccccc2)cc1 (configuration not stated)
48 to 50	Cc1cccc2c(Cl)c(Cl)sc12
157 to 159	CCOc1cc2nc(NC)nc(-c3cccc(-c4cnc5ccccc5c4)c3)c2cc1OCC
114 to 116	CN(C)C(=O)c1ccc2ccccc2c1/C=C/c1ccccc1
166 to 167	CCCN(C=Cc1ccc([N+](=O)[O-])c2[nH]ncc12)CCC
155 to 157	CN1CCN(C2=Nc3ccccc3N=C(c3ccccc3)C2)CC1
146 to 149	CC(Oc1ccc(Cl)c(Cl)c1)c1ccnc2ncnn12 (configuration not stated)
192 to 195	COC(=O)c1ccc2c(nc(C)n2Cc2ccccc2)c1C(=O)OC
197	O=C(OCC1OC(n2cc(I)c(=O)[nH]c2=O)C(F)C1OC(=O)c1ccccc1)c1ccccc1 (configuration not stated)
81 to 83	CCCCCCSC(=O)CS(=O)(=O)Nc1c(C(C)C)cccc1C(C)C
101 to 102	NCC1CC(n2cc(-c3cccc(F)c3)c3c(N)ncnc32)C1 (configuration not stated)
80 to 83	CS(=O)(=O)c1ccc(C(CC2CCCC2)C(=O)Nc2ccc(Br)cn2)cc1[N+](=O)[O-] (configuration not stated)
139 to 140	O=C(O)C(=O)c1ccc(O)c([N+](=O)[O-])c1
124 to 127	OC(CCc1ccc2ccccc2c1)c1cnc2sc3c(n12)CCCCC3 (configuration not stated)
191 to 192	CC(C)(C)OC(=O)COc1ccc(-c2c(Cl)c(CN3C(=O)CCC3=O)nc3sc4c(c23)CCSC4)cc1
42 to 43	CC1Cc2cccc(Cl)c2C1=O (configuration not stated)
121 to 123	CCc1ccc(C(=O)c2c(N)sc3c2CCN(C(=O)OCc2ccccc2)C3)cc1
150 to 152	COc1cc(C=O)ccc1NC(=O)OCC1c2ccccc2-c2ccccc21

melting point [°C]	SMILES
120 to 122	CNc1cc(C)c(O)c(C)c1C
192 to 194	NC(=S)N1c2ccccc2C=Cc2ccccc21
142 to 143	Cc1ccc(-n2nc(C(C)(C)C)cc2NC(=O)Nc2ccc(OCCN3CCOCC3)c3ccccc23)cc1
121 to 122	CCc1ccc(CCOc2ccc(NC(=O)N(C)C)cc2)nc1
105 to 108	CC(=O)OC1CSC(Oc2cncc(-c3ccnc(Cl)c3)c2)C(OC(C)=O)C1OC(C)=O (configuration not stated)
162 to 163	O=C1OCCN1c1cc(-c2ccnc(Nc3cccc(Cl)c3)n2)ccn1
70 to 72	COc1ccc(C(=O)C(=O)c2cccnc2)cc1
93 to 95	CCOc1ccc(OCCN2CCN(c3cc(Cl)nnc3Cl)CC2)cc1
120 to 123	O=CN(O)C(CCO)CS(=O)(=O)c1ccccc1Oc1ccc(OC(F)(F)F)cc1 (configuration not stated)
> 260	Cc1cnc(Cl)c2c3cc(O)ccc3n(C)c12
203 to 205	Cc1c(C)c(N2CCN(c3nncs3)CC2)c(C)c2c1OC(C)C2 (configuration not stated)
215	Nc1ccc(S(=O)(=O)Nc2cccc3[nH]ccc23)cc1
266 to 270	O=C(O)c1ccccc1Nc1ccc([N+](=O)[O-])cc1[N+](=O)[O-]
268 to 270	O=C1c2ccccc2NC(=S)C2CCCN12 (configuration not stated)
156 to 158	Cc1cccc(Nc2cc(Cl)nc(SCC(=O)NC3CCCCC3)n2)c1C
114 to 115	COc1ccc(-c2cc(=O)n(Cc3ccccc3)nc2-c2ccc(OC)c(F)c2)cc1F
109 to 111	CCCN(Cc1ccco1)S(=O)(=O)c1ccc(OC)c2oc(C(C)=O)cc12
185 to 189	O=C(Cn1nc(Br)nc1Br)N1CCC(c2nc(C3=NOC(c4c(F)cccc4F)C3)cs2)CC1 (configuration not stated)
113 to 118	Cc1cncc2cccc(S(=O)(=O)Cl)c12
82 to 128	C[C@H]1COc2c(C#N)cccc2C(=O)N(C[C@@H](CCN)c2ccc(Cl)c(Cl)c2)C1
257 to 259	CC(=O)NC1CCc2cc3c(cc21)CCC3 (configuration not stated)
100 to 102	CNCC(O)COc1ccc(C#N)cc1 (configuration not stated)

melting point [°C]	SMILES
128 to 129	CC1(C)CC(=C(c2ccc(O)cc2)c2ccc(-c3ccoc3)cc2)CC(C)(C)C1
184 to 185	NC(=O)C(NC(=O)OCc1ccccc1)c1ccc(CC2CC2)[nH]1 (configuration not stated)
58	O=Cc1ccn2c1CCC2
110 to 112	O=C1Cc2ccccc2Sc2cc(F)c(F)cc21
175 to 176	COc1ccc(C(C)CNC(=O)C(N)=O)cc1OC1CCCC1 (configuration not stated)
104 to 105	c1ccc(C2(c3ccccc3)SCCS2)cc1
54 to 55	CCCCCCn1c2ccccc2c2ccc(CO)cc21
100 to 102	CCNC(=O)n1nc(Oc2c(Cl)cc(C(F)(F)F)cc2Cl)cc1CC(=O)OCC
82	CCOC(=O)CC(NS(=O)(=O)c1cccc(-c2cccc(NC(=NC#N)NCc3ccccn3)c2)c1)c1ccccc1 (configuration not stated)
133 to 134	CCCCc1c[nH]c(S(C)=O)c1[N+](=O)[O-] (configuration not stated)
146 to 148	CC(=O)NC[C@H]1CN(c2ccc(C3=CN(C(=O)COC(C)=O)CCC3)c(F)c2)C(=O)O1
126 to 129	O=C(O)Cc1ccc(C(=O)c2cccs2)cc1
278 to 279	CON=C1CN(c2nc3c(cc2F)c(=O)c(C(=O)O)cn3C2CC2)CC12CN(C(=O)OC(C)(C)C)C2
129 to 130	O=C1CC(=O)C2CCC1C2
180 to 182	COc1ccc(C(=O)C2C(=O)N(C(N)=O)c3ccc(Cl)cc32)s1 (configuration not stated)
98	NCC1COc2cc(Cl)cc(-c3ccc(C(F)(F)F)cc3C(F)(F)F)c2N1 (configuration not stated)
134 to 138	CC(C)c1cccc(C(C)C)c1NC(=O)[C@H](C)NC(c1ccccc1)c1ccccc1
193 to 195	CC(C)c1ccc(-c2ncc(-c3cccc(C(=O)O)c3)o2)cc1
217 to 221	CNC(=O)c1ccsc1Nc1nc(Nc2ccc3c(c2)CCN(CCOC)CC3)ncc1Cl
197	Cc1onc(O)c1-c1ccccc1[N+](=O)[O-]

SMILES	melting point [°C]
Cc1sc2c(c1C)C(c1ccc(Cl)cc1)=NC(CC(=O)Nc1ccncc1)c1nnc(C)n1-2 (configuration not stated)	237 to 239
CC(=O)N(C)c1cccc(-c2ccnc3c(C(=O)c4ccccc4)cnn23)c1	162 to 164
CCN(CC)C(=S)NC1C=C2c3cccc4c3c(cn4CC)CC2N(C)C1 (configuration not stated)	108
CC(=O)NC1(c2ccccc2Cl)CCC=CC1=O (configuration not stated)	144 to 145
CCCOc1cc2c(cc1OC)C(c1ccc(OC)c(OC)c1)=NN=C(C)C2CC (configuration not stated)	110 to 112
CN1Cc2c(-c3noc(CN)n3)ncn2-c2ccccc2C1=O	192 to 195
Cc1nsc(OCC(Cl)(Cl)Cl)c1S(N)(=O)=O	140 to 142
C=C(C)C[C@@H]1C(=O)N(c2ccc(C#N)c(Cl)c2)[C@@H](C)[C@H]1O	110 to 112
